Test results reported in article PMC9133015 (Nature Communications, 2022).
Values joined by “and” are separate entries in the source; they are usually repeats but may differ in a detail not shown here. Equal values may be shown once.

How the values were obtained:
[1] = tested on: DU145 cells; test: Anti-proliferation activity assay (CCK8, 72 h); type: cell-based, human; conditions: DU145; for Relative proliferation rate (%) / optical density: replicates
[2] = tested on: PC-3 cells; test: Anti-proliferation activity assay (CCK8, 72 h); type: cell-based, human; conditions: PC-3; for Relative proliferation rate (%) / optical density: replicates
[3] = tested on: 22Rv1 cells; test: Anti-proliferation activity assay (CCK8, 72 h); type: cell-based, human; conditions: 22Rv1; for Relative proliferation rate (%) / optical density: replicates
[4] = tested on: RWPE-1 cells; test: Anti-proliferation activity assay (CCK8, 72 h); type: cell-based; conditions: RWPE1; for Relative proliferation rate (%) / optical density: replicates
[5] = tested on: 22Rv1 cells; test: Invasion assay (transwell); type: cell-based, human; conditions: 22Rv1, 0.5 μM, replicates
[6] = tested on: DU145 xenograft; test: In vivo antitumor activity, DU145 xenograft mouse model; design: species or system BALB/c nude mice; conditions: for Body weight (Fig. 7b) / Tumor volume (Fig. 7a): individual mice 1-10
[7] = tested on: DU145 xenograft; test: H&E and Ki67 staining of xenograft tumor tissues; type: in vivo, BALB/c nude mice; conditions: DU145, reference drug groups, replicates

Compound: CC(=O)c1c(C)c2cnc(Nc3ccc(N4CCNCC4)cn3)nc2n(C2CCCC2)c1=O [palbociclib]
- Relative proliferation rate (%) mean ([1]; 0.0049 uM): 4.824%
- Relative proliferation rate (%) ([1]; 0.0049 uM): 3.385% and 4.869% and 6.219%
- optical density ([1]; 0.0049 uM): 0.999 and 1.016 and 0.95
- Relative proliferation rate (%) mean ([1]; 0.078 uM): 19.5052%
- Relative proliferation rate (%) ([1]; 0.078 uM): 16.5377% and 19.5693% and 22.4087%
- optical density ([1]; 0.078 uM): 0.863 and 0.859 and 0.786
- Relative proliferation rate (%) mean ([1]; 0.3125 uM): 28.7249%
- Relative proliferation rate (%) ([1]; 0.3125 uM): 24.9516% and 28.7453% and 32.4778%
- optical density ([1]; 0.3125 uM): 0.776 and 0.761 and 0.684
- Relative proliferation rate (%) mean ([1]; 1.25 uM): 33.0518%
- Relative proliferation rate (%) ([1]; 1.25 uM): 30.3675% and 33.0524% and 35.7354%
- optical density ([1]; 1.25 uM): 0.720 and 0.715 and 0.651
- Relative proliferation rate (%) mean ([1]; 5 uM): 54.1864%
- Relative proliferation rate (%) ([1]; 5 uM): 49.8066% and 54.2135% and 58.539%
- optical density ([1]; 5 uM): 0.519 and 0.489 and 0.420
- Relative proliferation rate (%) mean ([1]; 20 uM): 62.4741%
- Relative proliferation rate (%) ([1]; 20 uM): 57.4468% and 62.4532% and 67.5222%
- optical density ([1]; 20 uM): 0.440 and 0.401 and 0.329
- Relative proliferation rate (%) mean ([1]; 80 uM): 75.0057%
- Relative proliferation rate (%) ([1]; 80 uM): 68.472% and 74.9064% and 81.6387%
- optical density ([1]; 80 uM): 0.326 and 0.268 and 0.186
- Relative proliferation rate (%) mean ([2]; 0.078 uM): 8.515%
- Relative proliferation rate (%) ([2]; 0.078 uM): 4.665% and 8.515% and 12.3646%
- optical density ([2]; 0.078 uM): 0.981 and 0.967 and 0.971
- Relative proliferation rate (%) mean ([2]; 0.3125 uM): 12.5396%
- Relative proliferation rate (%) ([2]; 0.3125 uM): 9.427% and 12.4882% and 15.704%
- optical density ([2]; 0.3125 uM): 0.932 and 0.925 and 0.934
- Relative proliferation rate (%) mean ([2]; 1.25 uM): 26.3574%
- Relative proliferation rate (%) ([2]; 1.25 uM): 21.0884% and 26.3955% and 31.5884%
- optical density ([2]; 1.25 uM): 0.812 and 0.778 and 0.758
- Relative proliferation rate (%) mean ([2]; 5 uM): 54.2128%
- Relative proliferation rate (%) ([2]; 5 uM): 49.8542% and 54.21% and 58.574%
- optical density ([2]; 5 uM): 0.516 and 0.484 and 0.459
- Relative proliferation rate (%) mean ([2]; 20 uM): 74.7111%
- Relative proliferation rate (%) ([2]; 20 uM): 68.7075% and 74.7398% and 80.6859%
- optical density ([2]; 20 uM): 0.322 and 0.267 and 0.214
- Relative proliferation rate (%) mean ([2]; 80 uM): 84.0905%
- Relative proliferation rate (%) ([2]; 80 uM): 77.7454% and 83.8221% and 90.704%
- optical density ([2]; 80 uM): 0.229 and 0.171 and 0.103
- Relative proliferation rate (%) mean ([3]; 0.0049 uM): 10.7151%
- Relative proliferation rate (%) ([3]; 0.0049 uM): 10.6906% and 8.054% and 13.4011%
- optical density ([3]; 0.0049 uM): 0.944 and 0.959 and 0.937
- Relative proliferation rate (%) mean ([3]; 0.078 uM): 28.5598%
- Relative proliferation rate (%) ([3]; 0.078 uM): 28.5714% and 25.4075% and 31.7006%
- optical density ([3]; 0.078 uM): 0.755 and 0.778 and 0.739
- Relative proliferation rate (%) mean ([3]; 0.3125 uM): 42.3403%
- Relative proliferation rate (%) ([3]; 0.3125 uM): 42.3841% and 37.8715% and 46.7652%
- optical density ([3]; 0.3125 uM): 0.609 and 0.648 and 0.576
- Relative proliferation rate (%) mean ([3]; 1.25 uM): 63.5644%
- Relative proliferation rate (%) ([3]; 1.25 uM): 63.5762% and 60.0192% and 67.098%
- optical density ([3]; 1.25 uM): 0.385 and 0.417 and 0.356
- Relative proliferation rate (%) mean ([3]; 5 uM): 73.8099%
- Relative proliferation rate (%) ([3]; 5 uM): 73.6991% and 70.3739% and 77.3567%
- optical density ([3]; 5 uM): 0.278 and 0.309 and 0.245
- Relative proliferation rate (%) mean ([3]; 20 uM): 83.6751%
- Relative proliferation rate (%) ([3]; 20 uM): 83.6329% and 79.9616% and 87.4307%
- optical density ([3]; 20 uM): 0.173 and 0.209 and 0.136
- Relative proliferation rate (%) mean ([3]; 80 uM): 92.6404%
- Relative proliferation rate (%) ([3]; 80 uM): 92.6206% and 87.0566% and 98.244%
- optical density ([3]; 80 uM): 0.078 and 0.135 and 0.019
- Relative proliferation rate (%) mean ([4]; 0.078 uM): 4.3459%
- Relative proliferation rate (%) ([4]; 0.078 uM): 2.8348% and 5.899% and 4.304%
- optical density ([4]; 0.078 uM): 0.994 and 1.005 and 1.045
- Relative proliferation rate (%) mean ([4]; 0.3125 uM): 4.485%
- Relative proliferation rate (%) ([4]; 0.3125 uM): 1.76% and 7.21% and 4.487%
- optical density ([4]; 0.3125 uM): 1.005 and 0.991 and 1.043
- Relative proliferation rate (%) mean ([4]; 1.25 uM): 11.7464%
- Relative proliferation rate (%) ([4]; 1.25 uM): 7.038% and 16.4794% and 11.7216%
- optical density ([4]; 1.25 uM): 0.951 and 0.892 and 0.964
- Relative proliferation rate (%) mean ([4]; 5 uM): 24.554%
- Relative proliferation rate (%) ([4]; 5 uM): 19.1593% and 29.8689% and 24.6337%
- optical density ([4]; 5 uM): 0.827 and 0.749 and 0.823
- Relative proliferation rate (%) mean ([4]; 20 uM): 55.5924%
- Relative proliferation rate (%) ([4]; 20 uM): 50.0489% and 61.1423% and 55.5861%
- optical density ([4]; 20 uM): 0.511 and 0.415 and 0.485
- Relative proliferation rate (%) mean ([4]; 80 uM): 75.0851%
- Relative proliferation rate (%) ([4]; 80 uM): 68.3284% and 81.8352% and 75.0916%
- optical density ([4]; 80 uM): 0.324 and 0.194 and 0.272
- Cell invasion (cell number) [5]: 531 cell number and 470 cell number and 513 cell number
- antitumor activity (in words) ([6]; DU145 xenograft, 100 mg/kg orally once a day, seven weeks): only delayed the tumor growth
- Body weight (Fig. 7b) ([6]; Day 1): 20.6 and 19.7 and 20.3 (2×) and 19.6 and 19.8 and 20.4 and 20.1 and 21.5 and 21.1
- Tumor volume (Fig. 7a) ([6]; Day 1, in cm³ (unit assumed)): 0.06799 and 0.07327 and 0.07849 and 0.09349 and 0.07486 and 0.07173 and 0.06955 and 0.08095 and 0.1033 and 0.07176
- Body weight (Fig. 7b) ([6]; Day 3): 20.9 and 20.1 and 20.5 and 19.9 and 20.3 and 20.7 (2×) and 20.4 and 21.5 (2×)
- Tumor volume (Fig. 7a) ([6]; Day 3): 0.109 (2×) and 0.1112 and 0.1321 and 0.1287 and 0.1049 and 0.09325 and 0.1073 and 0.1517 and 0.1054
- Body weight (Fig. 7b) ([6]; Day 5): 21.2 and 20.4 and 20.7 (2×) and 20.2 and 20.5 and 20.8 and 21.6 and 21.8 and 20.9
- Tumor volume (Fig. 7a) ([6]; Day 5, in cm³ (unit assumed)): 0.1433 and 0.1864 and 0.1614 and 0.176 and 0.1543 and 0.1645 and 0.1193 and 0.1528 and 0.2268 and 0.2014
- Tumor volume (Fig. 7a) ([6]; Day 7, in cm³ (unit assumed)): 0.1784 and 0.235 and 0.2414 and 0.2692 and 0.217 and 0.2962 and 0.1705 and 0.2421 and 0.3416 and 0.2763
- Body weight (Fig. 7b) ([6]; Day 7, in g (unit assumed)): 21.5 and 20.6 and 21 and 20.5 and 20.7 and 21.1 and 20.9 and 21.9 and 22.1 and 21.2
- Body weight (Fig. 7b) ([6]; Day 9): 21.7 and 21 and 21.5 (2×) and 20.9 and 21.3 (2×) and 21.2 and 22.3 and 22.5
- Tumor volume (Fig. 7a) ([6]; Day 9, in cm³ (unit assumed)): 0.239 and 0.3072 and 0.3051 and 0.3239 and 0.2873 and 0.3055 and 0.2456 and 0.3235 and 0.4654 and 0.3489
- Body weight (Fig. 7b) ([6]; Day 11): 22.1 and 21.4 and 21.9 and 21.2 and 21.6 and 21.7 and 21.5 (2×) and 22.6 and 22.9
- Tumor volume (Fig. 7a) ([6]; Day 11, in cm³ (unit assumed)): 0.3066 and 0.4081 and 0.3897 and 0.4352 and 0.3512 and 0.3909 and 0.2984 and 0.4401 and 0.56 and 0.4357
- Tumor volume (Fig. 7a) ([6]; Day 13, in cm³ (unit assumed)): 0.3785 and 0.467 and 0.4591 and 0.5566 and 0.4456 and 0.4658 and 0.368 and 0.5218 and 0.6407 and 0.5062
- Body weight (Fig. 7b) ([6]; Day 13, in g (unit assumed)): 22.5 and 21.7 and 22.2 and 21.4 and 21.9 and 22.1 and 21.6 and 23.1 and 23.2 and 21.8
- Body weight (Fig. 7b) ([6]; Day 15): 22.9 and 22 and 22.4 and 21.6 and 22.1 (2×) and 22.5 and 21.7 and 23.3 and 23.5
- Tumor volume (Fig. 7a) ([6]; Day 15, in cm³ (unit assumed)): 0.4581 and 0.5316 and 0.5555 and 0.6598 and 0.5071 and 0.5543 and 0.4465 and 0.6242 and 0.7718 and 0.6156
- Body weight (Fig. 7b) ([6]; Day 17): 23.1 (2×) and 22.2 and 22.7 (2×) and 21.9 and 22.4 and 21.6 and 23.7 and 22.3
- Tumor volume (Fig. 7a) ([6]; Day 17, in cm³ (unit assumed)): 0.5062 and 0.5921 and 0.6502 and 0.7599 and 0.6087 and 0.6352 and 0.4918 and 0.6837 and 0.8676 and 0.6822
- Body weight (Fig. 7b) ([6]; Day 19): 23.4 (2×) and 22.5 and 23.1 (2×) and 22.3 and 22.8 and 21.9 and 23.9 and 22.6
- Tumor volume (Fig. 7a) ([6]; Day 19, in cm³ (unit assumed)): 0.5936 and 0.6347 and 0.7034 and 0.8268 and 0.6585 and 0.679 and 0.5363 and 0.7534 and 0.9195 and 0.6727
- Tumor weight (Fig. 7c) ([6]; reference drug groups, individual mice, in g (unit assumed)): 1.87 and 2.14 and 1.86 and 2.29 and 1.85 and 1.63 and 1.81 and 1.69 and 1.58
- Positive rate ( % ) (Fig. 7f) [7]: 31.83% and 31.88% and 31.79%
